Legend:
[1] = 23.1 mg/kg BID DA; cited from earlier work
[2] = test system: AMLN diet-induced NASH mice; assay: Example 1: one-year DA dosing of AMLN diet-induced NASH mice (prevention study); format: in vivo
Protocol: This example provides the results of a 52 week study of lower dose DA (30 mg/kg per day QD by gavage) in mice where NASH conditions were induced by diet. The data for an animal-induced NASH of such a long duration (48-52 weeks) can be interpreted to support methods for preventing fatty liver diseases, including NASH, and methods of slowing progression of fatty liver diseases, including NASH. Male C57BL/6 mice (4 weeks old at study start) were maintained on a high-fat “Western diet” (AMLN diet) (DIO-NASH) (D09100301, Research Diet, USA) (40% fat (18% trans-fat), 40% carbohydrates (20% fructose) and 2% cholesterol, 40 kcal % fat, 20 kcal % fructose, and 2% cholesterol) following arrival, inducing non-alcoholic steatohepatitis (NASH). Following acclimation, Groups 1 and 2 (n=22 each) were dosed by intragastric oral gavage (PO) with (respectively) vehicle (distilled water) or denatonium acetate (DA) at 30 mg/kg. Doses were administered once daily (QD) for a full year (through Day 366) at dose volumes of 1 mL/kg. Body weights and clinical observations were monitored throughout the study. Blood was collected from fasted animals at baseline (Day −1) and regularly during the study (Weeks 4, 12, 24, and 48), processed to serum or plasma, and evaluated for metabolic parameters [glucose, insulin, hemoglobin A1c (HbA1c), and glucagon-like peptides 1 and 2 (GLP-1 and -2)], selected serum chemistry parameters [Ala aminotransferase (ALT), Asp aminotransferase (AST), albumin (ALB), and total bile acids (BA)], and multiple cytokines (32 total). After 52 weeks of QD dosing, fasted animals were bled and euthanized, and livers were collected and weighed. Terminal serum samples were assessed for low- and high-density cholesterol (LDL and HDL, respectively) and triglycerides (TGA); liver was assessed for total cholesterol (TC), TGA, and free fatty acids (FFA).
Male C57BL/6 mice (n=44) were purchased from Taconic Biosciences, Inc. (Rensselaer, NY), as 4-week-old animals. Following arrival, animals were weighed using an electronic balance (Ohaus SCOUT® PRO, Parsippany, NJ), given a clinical examination to ensure that the mice were in good condition, and group-housed (up to 4 per cage). The animals were maintained in HEPA-filtered static cages using SaniChip bedding 7090A (Harlan Teklad, Hayward, CA). Animal room controls were set to maintain temperature and relative humidity at 22° C.±4° C. and 50% 20%, respectively. Housing rooms were on a 12:12 light/dark cycle. Animals were acclimated on site for at least 3 days prior to entry onto the study. Following arrival and throughout the study, mice were provided with ad libitum access to water (via water bottles) and (except as noted for fasting) to a high-fat “Western diet” (AMLN diet, No. D09100301; Research Diets, New Brunswick, NJ) containing 40 kcal % fat, 20 kcal % fructose, and 2% cholesterol.
DA was formulated at 30 mg/mL in DW. Solid DA was weighed and added to the appropriate volume of DW; the solution was mixed well and inspected visually to ensure that there was no precipitate and to verify that the test article was completely solubilized. The DA dosing solution was prepared freshly each week and stored refrigerated at 4° C. between use in daily dose administrations. On Day −1 (i.e., one day before the start of dosing); and on Weeks 4, 12, 24, and 48 (i.e., after one, 3, 6, and 12 months of dosing), blood and fecal samples were collected from fasted animals. • Fecal samples (4 pellets per cage of 3-4 mice) were collected directly collected from the floor of each cage, divided into two aliquots, and stored at −80° C. for future microbiota and microbiome analysis. Results of those analyses are not included in this report. • Blood (100 μL/animal) was collected from each animal via the submandibular route. All blood samples were assessed for blood glucose levels and then processed to both serum and plasma. […]

[3] = test system: AMLN-diet induced NASH mice; format: in vivo
Protocol: This example provides the results obtained from a second in vivo mouse model of fatty liver disease treatment to investigate the therapeutic effect of DA on the treatment of NASH versus positive control semaglutide (a GLP-1 agonist marketed drug for lowering HbA1c). The differences in this study, from the preventive model in Example 1, were that a higher dose of DA (75 mg/kg) was used versus 30 mg/kg, dosing was twice daily (BID versus QD in the Example 1 study), a positive control semaglutide was used, a different mouse strain (B6 mice) was used, and the animals were already adults (23 weeks old in Example 2 versus 4 weeks old in Example 1) when the study began because the animals were already fed an AMLN diet for 17 weeks prior to the study being initiated. The study dose began at 75 mg/kg BID.
The study included 3 groups of 10 mice each, (A) vehicle control with distilled water by gavage BID, (B) DA by gavage BID, and (C) semaglutide […] sc QD. Body weights and changes were measured 3× per week. Serum metabolic markers (blood glucose, blood insulin, HbA1c, HDL, LDL triglycerides and bile acids) were measured at beginning of dosing (baseline) and end of study. At the end of the study, histopathology of liver samples and serum levels of inflammatory biomarkers (IL-6, TNFα, CK-18 and TGF-β) were evaluated. Histopathology was performed blindly with a scoring scale according to NAFLD Activity Score and Fibrosis Score according to Table 4.

[4] = 30 mg/kg PO QD, one year (48 weeks in Table 2), blinded histopathologic review
[5] = 30 mg/kg PO QD, only at Week 24
[6] = after one year of QD dosing, 30 mg/kg
[7] = after one year of daily dosing, 30 mg/kg
[8] = DA 75 then 50 mg/kg BID, 12 weeks

## CC(=O)[O-].CC[N+](CC)(CC(=O)Nc1c(C)cccc1C)Cc1ccccc1 [DA, denatonium acetate]
[1]
  weight gain: significant reduction
[2]; 30 mg/kg PO QD
  levels of the other (n=24) assessed cytokines vs vehicle: Significant treatment-related differences were not seen
[2]; 30 mg/kg PO QD, n=22, Weeks 12 and 49, unclear if test article related
  animals found dead during the study: two
[2]; [4]
  fibrosis on histopathology: improved/abrogated
  steatosis on histopathology: significantly improved
[2]; 30 mg/kg PO QD, one year, 1.52 vs. 0.58, p<0.0001
  total fibrosis score: 0.58
[2]; 30 mg/kg PO QD, Day 4
  relative body weights vs vehicle: lower
[2]; 30 mg/kg PO QD, Week 4 only
  IP-10 blood level vs vehicle: Statistically significant attenuation
  MIP-1B blood level vs vehicle: Statistically significant attenuation
[2]; 30 mg/kg PO QD, Week 12 only
  IL-13 blood level vs vehicle: Statistically significant attenuation
[2]; 30 mg/kg PO QD, Week 24 only
  MIP-1a blood level vs vehicle: Statistically significant attenuation
  Serum BA levels vs vehicle: significantly attenuated
  fasting blood glucose levels vs vehicle: significantly lower
[2]; 30 mg/kg PO QD, Week 48
  GLP-2 levels vs vehicle: did not differ significantly
[2]; 30 mg/kg PO QD, Week 48 only
  IL-6 blood level vs vehicle: Statistically significant attenuation
  IL-9 blood level vs vehicle: Statistically significant attenuation
  KC blood level vs vehicle: Statistically significant attenuation
[2]; 30 mg/kg PO QD, Weeks 4 and 12, not subsequently
  insulin levels vs vehicle: significantly elevated
[2]; 30 mg/kg PO QD, Weeks 4 and 48 only
  MIG blood level vs vehicle: Statistically significant attenuation
[2]; 30 mg/kg PO QD, Weeks 12 and 48, not Week 24
  HbA1c levels vs vehicle: significantly attenuated
[2]; 30 mg/kg PO QD, Weeks 24 and 48, not earlier
  Serum ALT activity levels vs vehicle: significantly attenuated
[2]; 30 mg/kg PO QD, any assessed time point
  Serum ALB levels vs vehicle: did not differ significantly
[2]; 30 mg/kg PO QD, during the first 5 months (both groups)
  body weight increase from baseline: ~150%
[2]; 30 mg/kg PO QD, during the study except Day 4 relative
  body weights (absolute or relative) vs vehicle: did not differ in a statistically significant manner
[2]; 30 mg/kg PO QD, during the year-long study (both groups)
  body weights mean increase from baseline: approximately 200%
[2]; [5]
  GLP-1 levels vs vehicle: significantly attenuated
  Serum AST activity levels vs vehicle: significantly attenuated
[2]; 30 mg/kg, PO, QD for 48 weeks
  Lowered serum levels of ALT: ALT (−43%),
  Lowered serum levels of AST: AST (−9.5%),
  Lowered serum levels of HbA1c: HbA1c (−6.7%),
  Lowered serum levels of bile acid: acid (−16.2%)
  Lowered serum levels of fasting glucose: glucose (−9%),
  decreased liver weight of animals: (by 10%)
  serum levels of GLP-1 (Table 2 summary): Increased
  serum levels of GLP-2 (Table 2 summary): Increased
  serum levels of inflammatory markers: Lowered serum
[2]; [6]
  absolute liver weight at necropsy vs vehicle: not absolute liver weight was attenuated
  relative (body weight-normalized) liver weight at necropsy vs vehicle: attenuated
[2]; [7]
  Liver TGA levels vs vehicle: significantly attenuated
  Serum TGA levels vs vehicle: significantly attenuated
  liver FFA levels vs vehicle: not those of TC or FFA, were significantly attenuated
  liver TC levels vs vehicle: not those of TC or FFA, were significantly attenuated
  serum HDL levels vs vehicle: not those of HDL or LDL, were significantly attenuated
  serum LDL levels vs vehicle: not those of HDL or LDL, were significantly attenuated
[2]; mouse, in vivo, po, 30 mg/kg
  adverse effects on survival, body weight, or clinical signs: did not appear to have adverse effects
[3]; [8]
  body weight: remarkable effect
  body weight change: remarkable effect
  liver weight vs vehicle: significantly decreased
  liver/body weight ratio vs vehicle: significantly decreased
[3]; blinded histopathologic review, DA 75 then 50 mg/kg BID, 12 weeks
  NAFLD Activity Score: significantly improved
[3]; end of the study
  ALT levels vs vehicle control: significantly decreased
  AST levels vs vehicle control: significantly decreased
  CK-18 levels vs vehicle control: significantly decreased
  high density lipoproteins (HDL): significantly decreased
  low density lipoproteins (LDL): significantly decreased
  triglycerides (TG): significantly decreased

Source: patent publication US20240100001A1, “DENATONIUM SALT FOR USE IN PREVENTING, PREVENTING PROGRESSION AND TREATING FATTY LIVER DISEASES” (AARDVARK THERAPEUTICS INC., priority 2021, published 2024)
